The results in this text go back to US20200016136A1 (VIIV HEALTHCARE UK (NO. 5) LIMITED, priority 2017, published 2020).

The assay relates to NL-RLuc virus (recombinant NL4-3 HIV with Renilla Luciferase gene). Description: Inhibition of HIV replication (NL-RLuc virus in MT-2 cells, luciferase readout). The format is cell-based, Human immunodeficiency virus (HIV). As to conditions: MT2, 120 h. An excerpt: Inhibition of HIV Replication:
A recombinant NL-RLuc proviral clone was constructed in which a section of the nef gene form NL4-3 was replaced with the Renilla Luciferase gene. This virus is fully infectious and can undergo multiple cycles of replication in cell culture. In addition, the luciferous reporter provides a simple and easy method for quantitating the extent of virus growth and consequently, the antiviral activity of test compounds. The plasmid pNLRLuc contains the proviral NL-Rluc DNA cloned into pUC18 at the PvuII site. The NL-RLuc virus was prepared by transfection of 293T cells with the plasmid pNLRLuc. Transfections were performed using the LipofectAMINE PLUS kit form Invitrogen (Carlsbad, Calif.) according to the manufacturer and the virus generated was titered in MT-2 cells. For susceptibility analyses, the titrated virus was used to infect MT-2 cells in the presence of compound, and after 5 days of incubation, cells were processed and quantitated for virus growth by the amount of expressed luciferase. Assay media was RPMI 1640 supplemented with 10% heat inactivated fetal bovine serum (FBS), 100 units/ml penicillin G/100 units/ml streptomycin, 10 mM HEPES buffer pH 7.55 and 2 mM L-glutamine. The results form at least 2 experiments were used to calculate the EC50 values. Luciferase was quantitated using the Dual Luciferase kit form Promega (Madison, Wis.). Susceptibility of viruses to compounds was determined by incubation in the presence of serial dilutions of the compound. The 50% effective concentration (EC50) was calculated by using the exponential form of the median effect equation where (Fa)=1/[1+(ED50/drug conc.)^m](Johnson V A, Byington R T. Infectivity Assay. In Techniques in HIV Research. ed. Aldovini A, Walker B D. 71-76. New York: Stockton Press. 1990).
The EC50 is the concentration needed to bring the measured effect to its halfway point. Regarding `COCCNc1nc(C)c([C@H](OC(C)(C)C)C(=O)O)c(N2CCC(C)(C)CC2)c1-c1ccc2c(c1)CCN(Cc1c(C)cccc1Cl)C2` [Example 2, (S)-2-(tert-Butoxy)-2-(5-(2-(2-chloro-6-methylbenzyl)-1,2,3,4-tetrahydroisoquinolin-6-yl)-4-(4,4-dimethylpiperidin-1-yl)-6-((2-methoxyethyl)amino)-2-methylpyridin-3-yl)acetic Acid], the EC50 is 4 nM. For `Cc1nc(C)c([C@H](OC(C)(C)C)C(=O)O)c(N2CCC(C)(C)CC2)c1-c1ccc2c(c1)CCN(c1nccc(-c3ccccn3)n1)C2` [Example 109, (S)-2-(tert-Butoxy)-2-(4-(4,4-dimethylpiperidin-1-yl)-2,6-dimethyl-5-(2-(4-(pyridin-2-yl)pyrimidin-2-yl)-1,2,3,4-tetrahydroisoquinolin-6-yl)pyridin-3-yl)acetic Acid], the 50% effective concentration (EC50) came to 1 nM.

Take `Cc1cccc(Cl)c1CN1CCc2cc(-c3c(CNCCCCCc4ccccc4)nc(C)c([C@H](OC(C)(C)C)C(=O)O)c3N3CCC(C)(C)CC3)ccc2C1` [Example 156, (S)-2-(tert-Butoxy)-2-(5-(2-(2-chloro-6-methylbenzyl)-1,2,3,4-tetrahydroisoquinolin-6-yl)-4-(4,4-dimethylpiperidin-1-yl)-2-methyl-6-(((5-phenylpentyl)amino)methyl)pyridin-3-yl)acetic Acid]: the EC50 is 65 nM. Under `Cc1nc(C)c([C@H](OC(C)(C)C)C(=O)O)c(N2CCC(C)(C)CC2)c1-c1ccc2c(c1)CCN(c1nc(N3CCOCC3)nn3cccc13)C2` [Example 84, (S)-2-(tert-Butoxy)-2-(4-(4,4-dimethylpiperidin-1-yl)-2,6-dimethyl-5-(2-(2-morpholinopyrrolo[2,1-f][1,2,4]triazin-4-yl)-1,2,3,4-tetrahydroisoquinolin-6-yl)pyridin-3-yl)acetic Acid] stands 6 nM; under `Cc1cc(F)ccc1CN1CCc2cc(-c3c(N)nc(Cl)c([C@H](OC(C)(C)C)C(=O)O)c3N3CCC(C)(C)CC3)ccc2C1` [Example 99, (S)-2-(6-Amino-2-chloro-4-(4,4-dimethylpiperidin-1-yl)-5-(2-(4-fluoro-2-methylbenzyl)-1,2,3,4-tetrahydroisoquinolin-6-yl)pyridin-3-yl)-2-(tert-butoxy)acetic Acid], 4 nM. The result for `Cc1ccc2c(n1)oc1c(N3CCc4cc(-c5cnc(C)c([C@H](OC(C)(C)C)C(=O)O)c5N5CCC(C)(C)CC5)ccc4C3)ncnc12` [Example 47, (2S)-2-(tert-Butoxy)-2-[4-(4,4-dimethylpiperidin-1-yl)-2-methyl-5-(2-{11-methyl-8-oxa-3,5,10-triazatricyclo[7.4.0.0^2,7]trideca-1(9),2,4,6,10,12-hexaen-6-yl}1,2,3,4tetrahydroisoquinolin-6-yl)pyridin-3-yl]acetic Acid] reads 1 nM; that for `Cc1nc(C)c([C@H](OC(C)(C)C)C(=O)O)c(N2CCC(C)(C)CC2)c1-c1ccc2c(c1)CCN(c1ccnc(N3C4CCC3CN(C)C4)n1)C2` [Example 42, (2S)-2-(tert-Butoxy)-2-[4-(4,4-dimethylpiperidin-1-yl)-2,6-dimethyl-5-[2-(2-{3-methyl-3,8-diazabicyclo[3.2.1]octan-8-yl}pyrimidin-4-yl)-1,2,3,4-tetrahydroisoquinolin-6-yl]pyridin-3-yl]acetic Acid], 4 nM. The result for `Cc1nc(C)c([C@H](OC(C)(C)C)C(=O)O)c(N2CCC(C)(C)CC2)c1-c1ccc2c(c1)CCN(c1cnnc(N3CCOCC3)c1)C2` [Example 73, (S)-2-(tert-Butoxy)-2-(4-(4,4-dimethylpiperidin-1-yl)-2,6-dimethyl-5-(2-(6-morpholinopyridazin-4-yl)-1,2,3,4-tetrahydroisoquinolin-6-yl)pyridin-3-yl)acetic Acid] reads 69 nM; that for `Cc1nc(C)c([C@H](OC(C)(C)C)C(=O)O)c(N2CCC(C)(C)CC2)c1-c1ccc2c(c1)CCN(c1nccc(N3CCN(CCO)CC3)n1)C2` [Example 69, (S)-2-(tert-Butoxy)-2-(4-(4,4-dimethylpiperidin-1-yl)-5-(2-(4-(4-(2-hydroxyethyl)piperazin-1-yl)pyrimidin-2-yl)-1,2,3,4-tetrahydroisoquinolin-6-yl)-2,6-dimethylpyridin-3-yl)acetic Acid], 18 nM. With `Cc1nc(C)c([C@H](OC(C)(C)C)C(=O)O)c(N2CCC(C)(C)CC2)c1-c1ccc2c(c1)CCN(c1cc(N3CCN(C)CC3)ncn1)C2` [Example 129, (S)-2-(tert-Butoxy)-2-(4-(4,4-dimethylpiperidin-1-yl)-2,6-dimethyl-5-(2-(6-(4-methylpiperazin-1-yl)pyrimidin-4-yl)-1,2,3,4-tetrahydroisoquinolin-6-yl)pyridin-3-yl)acetic Acid], the EC50 is 12 nM. Take `Cc1nc(C)c([C@H](OC(C)(C)C)C(=O)O)c(N2CCC(C)(C)CC2)c1-c1ccc2c(c1)CCN(c1cc(N3CCC(N4CCOCC4)CC3)ncn1)C2` [Example 134, (S)-2-(tert-Butoxy)-2-(4-(4,4-dimethylpiperidin-1-yl)-2,6-dimethyl-5-(2-(6-(4-morpholinopiperidin-1-yl)pyrimidin-4-yl)-1,2,3,4-tetrahydroisoquinolin-6-yl)pyridin-3-yl)acetic Acid]: the EC50 was found to be 4 nM. The result for `Cc1nc(C)c([C@H](OC(C)(C)C)C(=O)O)c(N2CCC(C)(C)CC2)c1-c1ccc2c(c1)CCN(c1cc(N3CCOCC3)ccn1)C2` [Example 83, (S)-2-(tert-Butoxy)-2-(4-(4,4-dimethylpiperidin-1-yl)-2,6-dimethyl-5-(2-(4-morpholinopyridin-2-yl)-1,2,3,4-tetrahydroisoquinolin-6-yl)pyridin-3-yl)acetic Acid] reads 5 nM. Under `Cc1nc(N2CCc3cc(-c4c(C)nc(C)c([C@H](OC(C)(C)C)C(=O)O)c4N4CCC(C)(C)CC4)ccc3C2)c2oc3ccccc3c2n1` [Example 128, (S)-2-(tert-Butoxy)-2-(4-(4,4-dimethylpiperidin-1-yl)-2,6-dimethyl-5-(2-(2-methylbenzofuro[3,2-d]pyrimidin-4-yl)-1,2,3,4-tetrahydroisoquinolin-6-yl)pyridin-3-yl)acetic Acid] stands 2 nM; under `Cc1nc(C)c([C@H](OC(C)(C)C)C(=O)O)c(N2CCC(C)(C)CC2)c1-c1ccc2c(c1)CCN(c1ccnc(N3CCC3)n1)C2` [Example 18, (2S)-2-(5-{2-[2-(Azetidin-1-yl)pyrimidin-4-yl]-1,2,3,4-tetrahydroisoquinolin-6-yl}-4-(4,4-dimethylpiperidin-1-yl)-2,6-dimethylpyridin-3-yl)-2-(tert-butoxy)acetic Acid], 1 nM.

`Cc1nc(C)c([C@H](OC(C)(C)C)C(=O)O)c(N2CCC(C)(C)CC2)c1-c1ccc2c(c1)CCN(c1ncnc3c1oc1ccc(Cl)cc13)C2` [Example 122, (S)-2-(tert-Butoxy)-2-(5-(2-(8-chlorobenzofuro[3,2-d]pyrimidin-4-yl)-1,2,3,4-tetrahydroisoquinolin-6-yl)-4-(4,4-dimethylpiperidin-1-yl)-2,6-dimethylpyridin-3-yl)acetic Acid]: the concentration giving a half-maximal response (EC50) came to 5 nM. Under `Cc1ncc(-c2ccc3c(c2)CCN(c2nccc(-c4cccnc4)n2)C3)c(N2CCC(C)(C)CC2)c1[C@H](OC(C)(C)C)C(=O)O` [Example 146, (S)-2-(tert-Butoxy)-2-(4-(4,4-dimethylpiperidin-1-yl)-2-methyl-5-(2-(4-(pyridin-3-yl)pyrimidin-2-yl)-1,2,3,4-tetrahydroisoquinolin-6-yl)pyridin-3-yl)acetic Acid] stands 0.5 nM; under `Cc1nc(C)c([C@H](OC(C)(C)C)C(=O)O)c(N2CCC(C)(C)CC2)c1-c1ccc2c(c1)CCN(c1nccc(N3CCN(C)CC3)n1)C2` [Example 40, (2S)-2-(tert-Butoxy)-2-[4-(4,4-dimethylpiperidin-1-yl)-2,6-dimethyl-5-{2-[4-(4-methylpiperazin-1-yl)pyrimidin-2-yl]-1,2,3,4-tetrahydroisoquinolin-6-yl}pyridin-3-yl]acetic Acid], 4 nM; under `Cc1nc(C)c([C@H](OC(C)(C)C)C(=O)O)c(N2CCC(C)(C)CC2)c1-c1ccc2c(c1)CCN(c1ccnc(N3CCC(F)(F)CC3)n1)C2` [Example 76, (S)-2-(tert-Butoxy)-2-(5-(2-(2-(4,4-difluoropiperidin-1-yl)pyrimidin-4-yl)-1,2,3,4-tetrahydroisoquinolin-6-yl)-4-(4,4-dimethylpiperidin-1-yl)-2,6-dimethylpyridin-3-yl)acetic Acid], 3 nM. Under `Cc1ncc(-c2ccc3c(c2)CCN(c2ncnc4c2oc2ncccc24)C3)c(N2CCC(C)(C)CC2)c1[C@H](OC(C)(C)C)C(=O)O` [Example 48, (2S)-2-(tert-Butoxy)-2-[4-(4,4-dimethylpiperidin-1-yl)-2-methyl-5-(2-{8-oxa-3,5,10-triazatricyclo[7.4.0.0^2,7]trideca-1(9),2,4,6,10,12-hexaen-6-yl}-1,2,3,4-tetrahydroisoquinolin-6-yl)pyridin-3-yl]acetic Acid] stands 0.6 nM.
